Data from patent US10112918B2, “15-oxospiramilactone derivatives, preparation method and uses thereof” (Kunming Institute of Botany, The Chinese Academy of Sciences, priority 2013, dated 2018).
Like-named read-outs stand apart in the source and are kept apart here. Each block holds one molecule with its values, some of them ahead of it.

What was measured:
Type in all cases: cell-based
[1] = tested on: A-549 (Human lung adenocarcinoma cells); assay: MTT inhibition of tumor cell growth, A-549
Method: (§1) 1. Inoculating cells: the culture medium DMEM or RMPI1640 containing 10% fetal bovine serum was used to prepare a single cell suspension, and the cell suspension was inoculated to a 96-well plate at 5000-10000 cells per well (100 μl for each well); Adherent cells were inoculated and cultured for 12 h in advance. HL-60 (human promyelocytic leukemia cells), SMMC-7721 (human hepatoma cells), A-549 (Human lung adenocarcinoma cells), MCF-7 (human breast cancer cells), SW-480 (human colon cancer cells) were purchased from the Cell Bank of the Chinese Academy of Sciences, Shanghai.
(§2) 2. The solution of the compound to be tested (40 μM for primary screening; 5 concentrations were set for gradient re-screening for the compounds which achieve about 50% inhibition of tumor cell growth at 40 μM) was added, the final volume of each well was 200 μl, and triplicate wells were set for each test.
(§3) 3. Coloration: After culturing at 37° C. for 48 h, MTT solution (20 μl) was added to each well. After incubation for another 4 h, the culture was stopped. The supernatant in each well was pipetted and discarded, and 200 μl SDS solution (10%) was added to each well. Incubation was performed overnight (at 37° C.), to completely dissolve the crystal.
(§4) 4. Colorimetric assay: ELISA Reader (Bio-Rad 680) was used to obtain the light absorption for each well at a wavelength of 595 nm, the results were recorded. A cell growth curve was plotted with the concentration as abscissa and the cell survival percentage as ordinate. The two-point method (Reed and Muench method) was used to calculate the IC50 of the compound.

[2] = tested on: HL-60 (human promyelocytic leukemia cells); assay: MTT inhibition of tumor cell growth, HL-60
Method: as §1, §2, §3, §4

[3] = tested on: SW-480 (human colon cancer cells); assay: MTT inhibition of tumor cell growth, SW-480
Method: as §1, §2, §3, §4

[4] = tested on: MCF-7 (human breast cancer cells); assay: MTT inhibition of tumor cell growth, MCF-7
Method: as §1, §2, §3, §4

[5] = tested on: SMMC-7721 (human hepatoma cells); assay: MTT inhibition of tumor cell growth, SMMC-7721
Method: as §1, §2, §3, §4

[6] = Table 1, 7-hydroxy derivatives of S-3, 48 h
[7] = Table 2, derivatives having potential Michael reaction acceptor, 48 h
[8] = Table 3, single Michael reaction acceptor, modified lactonic ring, 48 h
[9] = Table 4, derivatives obtained by reduction of the lactonic ring, 48 h
[10] = Table 5, derivatives having double Michael reaction acceptor, 48 h
[11] = Table 7 (first), alkaloid derivatives, 48 h
[12] = Homo sapiens, SW480, 48 h, Table 6, 7-carbonyl derivatives, read-out: IC50 SW-480, 7-carbonyl derivatives
[13] = Homo sapiens, SW480, 48 h, Table 6, 7-hydroxyl derivatives and controls, read-out: IC50 SW-480, 7-hydroxyl derivatives
[14] = Homo sapiens, SW480, 48 h, Table 6, double Michael reaction acceptor derivatives, read-out: IC50 SW-480, derivatives having double Michael reaction acceptor
[15] = Homo sapiens, A549, 48 h, Table 7 (first), alkaloid derivatives
[16] = Homo sapiens, HL-60, 48 h, Table 7 (first), alkaloid derivatives
[17] = Homo sapiens, SW480, 48 h, Table 7 (first), alkaloid derivatives, read-out: IC50 SW-480
[18] = Homo sapiens, MCF7, 48 h, Table 7 (first), alkaloid derivatives
[19] = Homo sapiens, SMMC-7721, 48 h, Table 7 (first), alkaloid derivatives

Compound: [NH2][Pt]([NH2])([Cl])[Cl] [cis-DDP, reference compound]
IC50 [1, 6]: 11700 nM | IC50 [1, 7]: 11700 nM | IC50 [1, 8]: 11700 nM | IC50 [1, 9]: 11700 nM | IC50 [1, 10]: 11700 nM | IC50 [1, 11]: 9080 nM | IC50 [2, 6]: 1810 nM | IC50 [2, 7]: 1810 nM | IC50 [2, 8]: 1810 nM | IC50 [2, 9]: 1810 nM | IC50 [2, 10]: 1810 nM | IC50 [2, 11]: 3080 nM | IC50 ([3]; Table 1, 7-hydroxy derivatives of S-3, 48 h, read-out: IC50 SW-480): 16600 nM | IC50 ([3]; Table 2, derivatives having potential Michael reaction acceptor, 48 h, read-out: IC50 SW-480): 16600 nM | IC50 ([3]; Table 3, single Michael reaction acceptor, modified lactonic ring, 48 h, read-out: IC50 SW-480): 16600 nM | IC50 ([3]; Table 4, derivatives obtained by reduction of the lactonic ring, 48 h, read-out: IC50 SW-480): 16600 nM | IC50 ([3]; Table 5, derivatives having double Michael reaction acceptor, 48 h, read-out: IC50 SW-480): 16600 nM | IC50 ([3]; Table 6, 7-hydroxyl derivatives and controls, 48 h, read-out: IC50 SW-480, 7-hydroxyl derivatives): 11100 nM | IC50 ([3]; Table 7 (first), alkaloid derivatives, 48 h, read-out: IC50 SW-480): 12000 nM | IC50 [4, 6]: 15900 nM | IC50 [4, 7]: 15900 nM | IC50 [4, 8]: 15900 nM | IC50 [4, 9]: 15900 nM | IC50 [4, 10]: 15900 nM | IC50 [4, 11]: 17500 nM | IC50 [5, 6]: 8860 nM | IC50 [5, 7]: 8860 nM | IC50 [5, 8]: 8860 nM | IC50 [5, 9]: 8860 nM | IC50 [5, 10]: 8860 nM | IC50 [5, 11]: 10200 nM

Compound: C=C1C(=O)[C@]23CC[C@H]1CC2[C@@]12CCC[C@@]4(C)CN(CCO)[C@@H]1O[C@@H]3CC42 (stereo partly drawn) [Compound 82]
IC50 ([1]; Homo sapiens, A549, Table 7 (first), alkaloid derivatives, 48 h): 18600 nM | IC50 ([2]; Homo sapiens, HL-60, Table 7 (first), alkaloid derivatives, 48 h): 19300 nM | IC50 ([3]; Homo sapiens, SW480, Table 7 (first), alkaloid derivatives, 48 h, read-out: IC50 SW-480): 14000 nM | IC50 ([4]; Homo sapiens, MCF7, Table 7 (first), alkaloid derivatives, 48 h): 10400 nM | IC50 ([5]; Homo sapiens, SMMC-7721, Table 7 (first), alkaloid derivatives, 48 h): 23600 nM

Compound: C=C1C(=O)C23CC[C@H]1CC2[C@@]12CCC[C@@](C)(COS(=O)OC1)C2CC3=O (stereo partly drawn) [Compound 42]
IC50 [3, 12]: 1830 nM

Compound: C=C1C(=O)[C@@]23CC[C@@H](CC2[C@@]24CCC[C@@](C)(CN(CCO[Si](C)(C)C(C)(C)C)C2)C14)C(=C)C3=O (stereo partly drawn) [Compound 92]
IC50 [1, 15]: 1550 nM | IC50 [2, 16]: 1390 nM | IC50 [3, 17]: 2780 nM | IC50 [4, 18]: 2900 nM | IC50 [5, 19]: 2630 nM

Compound: C=C1C(=O)C23CC[C@H]1CC2[C@]1(COC(=O)c2cccs2)CCC[C@@](C)(COC(=O)c2cccs2)C1C[C@H]3O (stereo partly drawn) [Compound 63]
IC50 [3, 13]: 2970 nM

Compound: CC(=O)O[C@H]1C(=O)[C@@]2(C)[C@H]([C@H](OC(=O)c3ccccc3)[C@]3(O)C[C@H](OC(=O)[C@H](O)[C@@H](NC(=O)c4ccccc4)c4ccccc4)C(C)=C1C3(C)C)[C@]1(OC(C)=O)CO[C@@H]1C[C@@H]2O [TAXOL, reference compound]
IC50 ([1]; Homo sapiens, A549, 48 h, Table 1, 7-hydroxy derivatives of S-3): < 8 nM | IC50 ([1]; Homo sapiens, A549, 48 h, Table 2, derivatives having potential Michael reaction acceptor): < 8 nM | IC50 ([1]; Homo sapiens, A549, 48 h, Table 3, single Michael reaction acceptor, modified lactonic ring): < 8 nM | IC50 ([1]; Homo sapiens, A549, 48 h, Table 4, derivatives obtained by reduction of the lactonic ring): < 8 nM | IC50 ([1]; Homo sapiens, A549, 48 h, Table 5, derivatives having double Michael reaction acceptor): < 8 nM | IC50 [1, 15]: < 8 nM | IC50 ([2]; Homo sapiens, HL-60, 48 h, Table 1, 7-hydroxy derivatives of S-3): < 8 nM | IC50 ([2]; Homo sapiens, HL-60, 48 h, Table 2, derivatives having potential Michael reaction acceptor): < 8 nM | IC50 ([2]; Homo sapiens, HL-60, 48 h, Table 3, single Michael reaction acceptor, modified lactonic ring): < 8 nM | IC50 ([2]; Homo sapiens, HL-60, 48 h, Table 4, derivatives obtained by reduction of the lactonic ring): < 8 nM | IC50 ([2]; Homo sapiens, HL-60, 48 h, Table 5, derivatives having double Michael reaction acceptor): < 8 nM | IC50 [2, 16]: < 8 nM | IC50 ([3]; Homo sapiens, SW480, 48 h, Table 1, 7-hydroxy derivatives of S-3, read-out: IC50 SW-480): < 8 nM | IC50 ([3]; Homo sapiens, SW480, 48 h, Table 2, derivatives having potential Michael reaction acceptor, read-out: IC50 SW-480): < 8 nM | IC50 ([3]; Homo sapiens, SW480, 48 h, Table 3, single Michael reaction acceptor, modified lactonic ring, read-out: IC50 SW-480): < 8 nM | IC50 ([3]; Homo sapiens, SW480, 48 h, Table 4, derivatives obtained by reduction of the lactonic ring, read-out: IC50 SW-480): < 8 nM | IC50 ([3]; Homo sapiens, SW480, 48 h, Table 5, derivatives having double Michael reaction acceptor, read-out: IC50 SW-480): < 8 nM | IC50 [3, 13]: < 8 nM | IC50 [3, 17]: < 8 nM | IC50 ([4]; Homo sapiens, MCF7, 48 h, Table 1, 7-hydroxy derivatives of S-3): < 8 nM | IC50 ([4]; Homo sapiens, MCF7, 48 h, Table 2, derivatives having potential Michael reaction acceptor): < 8 nM | IC50 ([4]; Homo sapiens, MCF7, 48 h, Table 3, single Michael reaction acceptor, modified lactonic ring): < 8 nM | IC50 ([4]; Homo sapiens, MCF7, 48 h, Table 4, derivatives obtained by reduction of the lactonic ring): < 8 nM | IC50 ([4]; Homo sapiens, MCF7, 48 h, Table 5, derivatives having double Michael reaction acceptor): < 8 nM | IC50 [4, 18]: < 8 nM | IC50 ([5]; Homo sapiens, SMMC-7721, 48 h, Table 1, 7-hydroxy derivatives of S-3): < 8 nM | IC50 ([5]; Homo sapiens, SMMC-7721, 48 h, Table 2, derivatives having potential Michael reaction acceptor): < 8 nM | IC50 ([5]; Homo sapiens, SMMC-7721, 48 h, Table 3, single Michael reaction acceptor, modified lactonic ring): < 8 nM | IC50 ([5]; Homo sapiens, SMMC-7721, 48 h, Table 4, derivatives obtained by reduction of the lactonic ring): < 8 nM | IC50 ([5]; Homo sapiens, SMMC-7721, 48 h, Table 5, derivatives having double Michael reaction acceptor): < 8 nM | IC50 [5, 19]: < 8 nM

Compound: C=C1C(=O)C23CC[C@H]1CC2[C@]1(COC(C)=O)CCC[C@@](C)(COC(=O)c2cccs2)C1C[C@H]3O (stereo partly drawn) [Compound 70]
IC50 [3, 13]: 1690 nM

Results, then the molecule that gave them:

IC50 [3, 12]: 690 nM
Compound: C=C1C(=O)C23CC[C@H]1CC2[C@]1(COC(=O)CC)CCC[C@@](C)(COC(=O)CC)C1CC3=O (stereo partly drawn) [Compound 73c]

IC50 [3, 13]: 810 nM
Compound: C=C1C(=O)C23CC[C@H]1CC2[C@]1(COC(=O)CC)CCC[C@@](C)(COC(=O)CC)C1C[C@H]3O (stereo partly drawn) [Compound 72c]

IC50 [3, 12]: 620 nM
Compound: C=C1C(=O)C23CC[C@H]1CC2[C@]1(COC(=O)c2ccccc2)CCC[C@@](C)(COC(=O)c2ccccc2)C1CC3=O (stereo partly drawn) [Compound 73d]

IC50 [3, 14]: 330 nM
Compound: C=C1C(=O)C23CC[C@@H](CC2[C@]2(COC(=O)CC)CCC[C@@](C)(COC(=O)CC)C12)C(=C)C3=O (stereo partly drawn) [Compound 74c]

IC50 [3, 13]: 520 nM
Compound: C=C1C(=O)C23CC[C@H]1CC2[C@]1(COC(=O)c2ccccc2)CCC[C@@](C)(COC(=O)c2ccccc2)C1C[C@H]3O (stereo partly drawn) [Compound 72d]

IC50 [3, 14]: 150 nM
Compound: C=C1C(=O)C23CC[C@@H](CC2[C@]2(COC(=O)c4ccccc4)CCC[C@@](C)(COC(=O)c4ccccc4)C12)C(=C)C3=O (stereo partly drawn) [Compound 74d]
